Here are results for 19 molecules from article PMC9080333 (RSC Advances, 2018).

Values after ≈ are worked out from the molar mass of the structure shown.

The test system of one data set is RAW 264.7 cells. As to conditions: RAW 264.7 cell line, MTT assay, 50 μg mL^−1, 48 h incubation.
The subject of data set [1] is Mycobacterium tuberculosis H37Rv. The data set is described as follows: In vitro MTB Microplate Alamar Blue Assay. Format: cell-based.
[2] abbreviates: Mycobacterium tuberculosis, H37RV, M. tuberculosis H37Rv, MABA, average of duplicates.
Where [3] appears, read: against MTB, in vitro (conclusion).
Where [4] appears, read: Mycobacterium tuberculosis, H37RV, 168 h, M. tuberculosis H37Rv, MABA, average of duplicates.
Setting [5] is: M. tuberculosis H37Rv, MABA, average of duplicates.

Consider `COc1ccc(-n2nnc3c2CCC2(C=Cc4cc(Cl)ccc4O2)C3)cc1` (centres unmarked) [Compound 7i, 6′-Chloro-1-(4-methoxyphenyl)-1,4,6,7-tetrahydrospiro[benzo[d][1,2,3]triazole-5,2′-chromene]], for which the “Cytotoxicity in % inhibition at 50 μg mL^−1” value (from here on “Cytotoxicity in % inhibition”) in the data set on RAW 264.7 cells stood at 29.36%. In addition, the MIC in data set [1] (setting [2]) is 4.11 µM (≈ 1.56 µg/mL); in data set [1] (setting [3]) it was 1.56 µg. `Cc1ccc2c(c1)C=CC1(CCc3c(nnn3Cc3ccccc3)C1)O2` (centres unmarked) [Compound 7e, 1-Benzyl-6′-methyl-1,4,6,7-tetrahydrospiro[benzo[d][1,2,3]triazole-5,2′-chromene]] came in with an MIC in data set [1] (setting [4]) of 75.8 µM (≈ 26 µg/mL). Molecule `CC[C@@H](CO)NCCN[C@@H](CC)CO` [Ethambutol, reference compound] came in with an MIC in data set [1] (setting [2]) of 7.64 µM (≈ 1.56 µg/mL). `Cc1ccc(-n2nnc3c2CCC2(C=Cc4cc(Cl)ccc4O2)C3)cc1` (centres unmarked) [Compound 7g, 6′-Chloro-1-(p-tolyl)-1,4,6,7-tetrahydrospiro[benzo[d][1,2,3]triazole-5,2′-chromene]] yielded an MIC in data set [1] (setting [2]) of 68.9 µM (≈ 25.1 µg/mL). Take `COc1ccc(-n2nnc3c2CCC2(C=Cc4cc(Cl)c(C)cc4O2)C3)cc1` (centres unmarked) [Compound 7n, 6′-Chloro-1-(4-methoxyphenyl)-7′-methyl-1,4,6,7-tetrahydrospiro[benzo[d][1,2,3]triazole-5,2′-chromene]]: in the data set with RAW 264.7 cells, the “Cytotoxicity in % inhibition” value worked out at 22.64%. This molecule also displayed an MIC in data set [1] (setting [2]) of 15.9 µM (≈ 6.26 µg/mL). With `Cc1ccc2c(c1)C=CC1(CCc3c(nnn3-c3ccccc3)C1)O2` (centres unmarked) [Compound 7a, 6′-Methyl-1-phenyl-1,4,6,7-tetrahydrospiro[benzo[d][1,2,3]triazole-5,2′-chromene]], the “Cytotoxicity in % inhibition” value in the data set with RAW 264.7 cells was determined as 30.23%. The MIC amounted to 4.74 µM (≈ 1.56 µg/mL) in data set [1] (setting [2]) and 1.56 µg in data set [1] (setting [3]).

Regarding `Cc1cc2c(cc1Cl)C=CC1(CCc3c(nnn3Cc3ccccc3)C1)O2` (centres unmarked) [Compound 7o, 1-Benzyl-6′-chloro-7′-methyl-1,4,6,7-tetrahydrospiro[benzo[d][1,2,3]triazole-5,2′-chromene]], the MIC in data set [1] (setting [2]) was found to be 66.3 µM (≈ 25.1 µg/mL). Turning to `Clc1ccc2c(c1)C=CC1(CCc3c(nnn3-c3ccccc3)C1)O2` (centres unmarked) [Compound 7f, 6′-Chloro-1-phenyl-1,4,6,7-tetrahydrospiro[benzo[d][1,2,3]triazole-5,2′-chromene]], the “Cytotoxicity in % inhibition” value in the data set with RAW 264.7 cells is on record as 21.41%. Also, the MIC in data set [1] (setting [2]) was determined as 17.9 µM (≈ 6.26 µg/mL). The molecule `Cc1ccc(-n2nnc3c2CCC2(C=Cc4cc(Cl)c(C)cc4O2)C3)cc1` (centres unmarked) [Compound 7l, 6′-Chloro-7′-methyl-1-(p-tolyl)-1,4,6,7-tetrahydrospiro[benzo[d][1,2,3]triazole-5,2′-chromene]] registered an MIC in data set [1] (setting [4]) of 69 µM (≈ 26.1 µg/mL). For `NC(=O)c1cnccn1` [pyrazinamide, reference compound], the MIC in data set [1] (setting [2]) amounted to 50.8 µM (≈ 6.25 µg/mL). Turning to `CO[C@H]1/C=C/O[C@@]2(C)Oc3c(C)c(O)c4c(O)c(c(/C=N/N5CCN(C)CC5)c(O)c4c3C2=O)NC(=O)/C(C)=C\C=C\[C@H](C)[C@H](O)[C@@H](C)[C@@H](O)[C@@H](C)[C@H](OC(C)=O)[C@@H]1C` [Rifampicin, reference compound], the values for the MIC in data set [1] (setting [5]) and in data set [1] (setting [2]) were 0.50 µM (≈ 0.411 µg/mL) and 0.5 µM (≈ 0.411 µg/mL), respectively. `Cc1ccc2c(c1)C=CC1(CCc3c(nnn3-c3ccc(Cl)cc3)C1)O2` (centres unmarked) [Compound 7c, 1-(4-Chlorophenyl)-6′-methyl-1,4,6,7-tetrahydrospiro[benzo[d][1,2,3]triazole-5,2′-chromene]] had an MIC in data set [1] (setting [2]) of 34.4 µM (≈ 12.5 µg/mL). The molecule `Clc1ccc(-n2nnc3c2CCC2(C=Cc4cc(Cl)ccc4O2)C3)cc1` (centres unmarked) [Compound 7h, 6′-Chloro-1-(4-chlorophenyl)-1,4,6,7-tetrahydrospiro[benzo[d][1,2,3]triazole-5,2′-chromene]] came in with an MIC in data set [1] (setting [2]) of 65.3 µM (≈ 25.1 µg/mL).

For `COc1ccc(-n2nnc3c2CCC2(C=Cc4cc(C)ccc4O2)C3)cc1` (centres unmarked) [Compound 7d, 1-(4-Methoxyphenyl)-6′-methyl-1,4,6,7-tetrahydrospiro[benzo[d][1,2,3]triazole-5,2′-chromene]], in the data set with RAW 264.7 cells, the “Cytotoxicity in % inhibition” value turned out to be 33.14%. Further, the MIC in data set [1] (setting [2]) worked out at 4.34 µM (≈ 1.56 µg/mL); in data set [1] (setting [3]), 1.56 µg. As to `NNC(=O)c1ccncc1` [Isoniazid, reference compound], the MIC in data set [1] (setting [2]) is 0.437 µM (≈ 0.0599 µg/mL).

In data set [1] (setting [2]), `Clc1ccc2c(c1)C=CC1(CCc3c(nnn3Cc3ccccc3)C1)O2` (centres unmarked) [Compound 7j, 1-Benzyl-6′-chloro-1,4,6,7-tetrahydrospiro[benzo[d][1,2,3]triazole-5,2′-chromene]] showed an MIC of 34.4 µM (≈ 12.5 µg/mL).

Turning to `Cc1cc2c(cc1Cl)C=CC1(CCc3c(nnn3-c3ccccc3)C1)O2` (centres unmarked) [Compound 7k, 6′-Chloro-7′-methyl-1-phenyl-1,4,6,7-tetrahydrospiro[benzo[d][1,2,3]triazole-5,2′-chromene]], in the data set with RAW 264.7 cells, the “Cytotoxicity in % inhibition” value is 24.90%. Besides, the MIC in data set [1] (setting [5]) came out at 8.60 µM (≈ 3.13 µg/mL); in data set [1] (setting [2]), 8.6 µM (≈ 3.13 µg/mL). In data set [1] (setting [4]), `Cc1ccc(-n2nnc3c2CCC2(C=Cc4cc(C)ccc4O2)C3)cc1` (centres unmarked) [Compound 7b, 6′-Methyl-1-(p-tolyl)-1,4,6,7-tetrahydrospiro[benzo[d][1,2,3]triazole-5,2′-chromene]] displayed an MIC of 75.8 µM (≈ 26 µg/mL).

With `Cc1cc2c(cc1Cl)C=CC1(CCc3c(nnn3-c3ccc(Cl)cc3)C1)O2` (centres unmarked) [Compound 7m, 6′-Chloro-1-(4-chlorophenyl)-7′-methyl-1,4,6,7-tetrahydrospiro[benzo[d][1,2,3]triazole-5,2′-chromene]], the “Cytotoxicity in % inhibition” value with RAW 264.7 cells was 24.76%. The MIC is 7.87 µM (≈ 3.13 µg/mL) in data set [1] (setting [5]) and 7.67 µM (≈ 3.05 µg/mL) in data set [1] (setting [2]).
